The pIC50 is the negative decadic logarithm of the IC50, by convention in mol/L.

The text below walks through data of ChEMBL document CHEMBL3886463, “Triazolopyridine compounds” (2016).

pIC50: −log10 of the molar value.

The target in this assay is cAMP and cAMP-inhibited cGMP 3',5'-cyclic phosphodiesterase 10A (Homo sapiens, UniProt Q9Y233). Description: Inhibition Assay: The human PDE10A full length assay was performed in 96-well micro titer plates. The reaction mixture of 50 ul contained 20 mM HEPES pH=7.5/10 mM MgCl2/0.05 mg/ml BSA (Sigma cat. # A-7906), 50 nM cGMP (Sigma, cat. # G6129) and 50 nM [3H]-cGMP (GE Healthcare, cat. # TRK392 S.A. 13.2 Ci/mmol), 3.75 ng/well PDE10A enzyme (Enzo Life Science, Lausen, Switzerland cat # SE-534) with or without a specific test compound. A range of concentrations of the potential inhibitor was used to generate data for calculating the concentration of inhibitor resulting in 50% of the effect (e.g. IC50, the concentration of the competitor inhibiting PDE10A activity by 50%). Non-specific activity was tested without the enzyme. The reaction was initiated by the addition of the substrate solution (cGMP and [3H]-cGMP) and allowed to progress for 20 minutes at room temperature. The reaction was terminated by adding 25 ul of YSi-SPA scintillation beads (GE Healthcare, cat. # RPNQ0150) in 18 mM zinc sulphate.
cAMP and cAMP-inhibited cGMP 3',5'-cyclic phosphodiesterase 10A, sequence (Q9Y233 whole entry): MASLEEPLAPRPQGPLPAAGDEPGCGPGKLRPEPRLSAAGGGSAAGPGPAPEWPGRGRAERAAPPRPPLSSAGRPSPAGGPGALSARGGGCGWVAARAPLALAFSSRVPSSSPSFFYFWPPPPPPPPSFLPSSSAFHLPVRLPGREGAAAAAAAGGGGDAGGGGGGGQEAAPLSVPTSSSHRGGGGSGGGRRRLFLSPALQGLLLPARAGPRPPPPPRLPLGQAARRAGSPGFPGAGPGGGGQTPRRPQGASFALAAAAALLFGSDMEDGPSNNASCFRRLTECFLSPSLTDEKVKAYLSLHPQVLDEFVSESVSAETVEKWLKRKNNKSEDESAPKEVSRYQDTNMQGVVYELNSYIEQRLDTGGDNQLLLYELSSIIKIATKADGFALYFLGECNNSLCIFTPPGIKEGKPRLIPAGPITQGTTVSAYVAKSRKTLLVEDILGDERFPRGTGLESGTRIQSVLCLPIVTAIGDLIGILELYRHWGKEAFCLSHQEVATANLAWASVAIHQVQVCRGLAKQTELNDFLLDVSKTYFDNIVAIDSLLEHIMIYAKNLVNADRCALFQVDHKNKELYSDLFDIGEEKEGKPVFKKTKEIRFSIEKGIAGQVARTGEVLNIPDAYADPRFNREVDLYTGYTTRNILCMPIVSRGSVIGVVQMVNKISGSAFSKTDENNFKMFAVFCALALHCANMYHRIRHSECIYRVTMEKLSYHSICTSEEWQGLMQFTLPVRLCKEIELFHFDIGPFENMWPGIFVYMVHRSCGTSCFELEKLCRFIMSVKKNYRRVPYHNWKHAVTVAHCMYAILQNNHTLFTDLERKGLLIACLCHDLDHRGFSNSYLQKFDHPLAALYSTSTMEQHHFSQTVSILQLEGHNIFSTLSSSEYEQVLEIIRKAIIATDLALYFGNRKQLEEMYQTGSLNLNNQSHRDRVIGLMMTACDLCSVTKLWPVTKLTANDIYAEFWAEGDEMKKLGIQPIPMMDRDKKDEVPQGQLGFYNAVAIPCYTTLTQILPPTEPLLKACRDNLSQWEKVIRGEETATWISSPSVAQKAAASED

In the case of `CCN(CC)c1nc2ccc(NC(=O)c3c(C(=O)N4CCCC4)cnn3C)cn2n1`, the pIC50 is 8.48.

For `Cn1ncc(C(=O)N2CCC2)c1C(=O)Nc1ccc2nc(N3CCOCC3)nn2c1`, the pIC50 is 7.64.
